Target: T1, Leukotriene, Cysteinyl CysLT1 (Cavia porcellus, UniProt Q2NNR5)
T1 construct: from tissue; host or cells: guinea pig lung membrane
T1 sequence (Q2NNR5 1-340): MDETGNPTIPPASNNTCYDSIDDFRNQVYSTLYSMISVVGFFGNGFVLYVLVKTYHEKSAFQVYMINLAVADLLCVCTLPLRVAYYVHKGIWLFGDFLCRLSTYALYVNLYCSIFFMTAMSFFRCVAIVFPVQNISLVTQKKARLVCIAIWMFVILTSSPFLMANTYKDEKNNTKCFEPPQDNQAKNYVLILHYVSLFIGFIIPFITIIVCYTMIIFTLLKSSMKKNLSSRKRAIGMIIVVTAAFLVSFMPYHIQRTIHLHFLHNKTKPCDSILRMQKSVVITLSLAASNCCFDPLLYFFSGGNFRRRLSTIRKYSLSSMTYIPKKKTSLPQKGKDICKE
Test: receptor radio-ligand-binding assay (Tritiated LTD4 as the ligand), Guinea pig lung membrane
Settings: 0.2 nM 3H LTD4, Guinea pig lung membrane; for inhibition at 0.001 µM / inhibition at 0.003 µM / inhibition at 0.01 µM: 0.5 h; for inhibition at 0.001 µM: read-out: % Inhbition (in nM) 1; for inhibition at 0.003 µM: read-out: % Inhbition (in nM) 3; for inhibition at 0.01 µM: read-out: % Inhbition (in nM) 10
Description: The primary in-vitro biological screening for the compounds carried-out involving receptor radio-ligand-binding assay (Tritiated LTD4 as the ligand) by known methods described in literature [a). Mong et al. European Journal of Pharmacology (102); 1984 1-11b). Jones et al; Journal of Physiology & Pharmacology (73); 1994, 191-201 c). MDS Pharma Services: 250460 Leukotriene, Cysteinyl CysLT1]. Accordingly, Guinea pig lung membrane (100 ug) is incubated with 0.2 nM 3H LTD4 in presence of Reference Standard/Test item/Vehicle Control. Non Specific Binding is determined by incubating the membrane with 0.2 nM 3H LTD4 in presence of 1 uM of unlabeled LTD4. The samples are incubated at 26° C. for 30 minutes and are vacuum filtered on a membrane to separate the bound and free radioligand. The membrane is counted in a liquid scintillation counter to calculate the bound radioactivity. Specific Binding in Vehicle treated and Reference Standard/Test item treated set is compared to evaluate the % Inhibition values. Some of the compounds have shown >50% inhibition in the presence of ≦3 nano-molar concentration of the compounds of present invention as shown in the following table.

| inhibition at 0.001 µM (1 nM test compound) [%] | inhibition at 0.003 µM (3 nM test compound) [%] | inhibition at 0.01 µM (10 nM test compound) [%] | SMILES | % Inhbition (in nM) 1 (1 nM test compound) [%] | % Inhbition (in nM) 3 (3 nM test compound) [%] | % Inhbition (in nM) 10 (10 nM test compound) [%] |
| --- | --- | --- | --- | --- | --- | --- |
| 46 | 56 | 71 | CS(=O)(=O)NC(CCc1ccccc1C(=O)O)c1cccc(/C=C/c2ccc3ccc(Cl)cc3n2)c1 (stereo not drawn) [Ia.11, 2-(3-{3-[(E)-2-(7-Chloro-quinolin-2-yl)-vinyl]phenyl}-3-methanesulfonylamino-propyl)-benzoic acid] |  |  |  |
| 72 | 86 | 89 | COc1ccc(CCC2(c3cccc(/C=C/c4ccc5ccc(Cl)cc5n4)c3)OCCO2)c(C(=O)O)c1 [Ib.67] |  |  |  |
| 0.3 | 51 | 69 | CCN(CC)C(=O)c1ccccc1CCC(NC(=O)c1ccccc1C(=O)O)c1cccc(/C=C/c2ccc3ccc(Cl)cc3n2)c1 (stereo not drawn) [Ia.38, N-[1-{3-[(E)-2-(7-Chloro-quinolin-2-yl)-vinyl]-phenyl}-3-(2-diethylcarbamoyl-phenyl)-propyl]-phthalamic acid] |  |  |  |
| 49 | 91 | 99 | O=C(c1ccccc1CCC1(c2cccc(/C=C/c3ccc4ccc(Cl)cc4n3)c2)OCCO1)N1CCCC1 [Ib.36, {2-[2-(2-{3-[(E)-2-(7-Chloro-quinolin-2-yl)-vinyl]-phenyl}-[1,3]-dioxolan-2-yl)-ethyl]-phenyl}-pyrrolidin-1-yl-methanone] |  |  |  |
|  |  |  | [2H]C([2H])([2H])Oc1ccc(OCC(OCC2CC2)c2cccc(/C=C/c3ccc4ccc(Cl)cc4n3)c2)c(C(=O)O)c1 (stereo not drawn) [Ia.172, 2-(2-{3-[(E)-2-(7-Chloro-quinolin-2-yl)-vinyl]-phenyl}-2-cyclopropylmethoxy-ethoxy)-5-triduetereo methoxy-benzoic acid] | 50 | 77 | 88 |

| SMILES | inhibition at 0.001 µM (1 nM test compound) [%] | inhibition at 0.003 µM (3 nM test compound) [%] | inhibition at 0.01 µM (10 nM test compound) [%] | % Inhbition (in nM) 1 (1 nM test compound) [%] | % Inhbition (in nM) 3 (3 nM test compound) [%] | % Inhbition (in nM) 10 (10 nM test compound) [%] |
| --- | --- | --- | --- | --- | --- | --- |
| CC(=O)OC(CSc1ccccc1C(=O)O)c1cccc(/C=C/c2ccc3ccc(Cl)cc3n2)c1 (stereo not drawn) [Ia.118, 2-(2-Acetoxy-2-{3-[(E)-2-(7-chloro-quinolin-2-yl)-vinyl]-phenyl}-ethylsulfanyl)-benzoic acid] | 33 | 46 | 52 |  |  |  |

From patent publication US9102665B2, “Cysteinyl leukotriene antagonists” (Sun Pharma Advanced Research Company Ltd., priority 2011, dated 2015)
